“Also recorded” adds a separate entry of the source. Like-named read-outs stand apart in the source and are kept apart here. Numbered stars: 1 amine (or outer) side, 2 acyl side, 3 side chain; on linkers, the order of the positions; unused ones are H or OH. Bridge positions count the residues as written; N and C are the ends. Square brackets hold non-standard residues; d marks the D form. Peptide text beside a SMILES is read from it. I, II: the chains in the order shown. Actinocin(9to1) = Cc1c2oc3c(C)ccc(C(=O)[*:1])c3nc-2c(C(=O)[*:2])c(N)c1=O; NMeV = CN[C@H](C(=O)O)C(C)C; Sar = CNCC(=O)O
Key:
[1] = tested on: SKBr3 cells; experiment: Cytotoxicity assay, LDH release into culture medium; assay type: cell-based, human; settings: various concentrations, FIG. 3A
Protocol: (§1) Cells were seeded at 100,000 cells/well.

[2] = tested on: T47D cells; experiment: as above; assay type: cell-based, human; settings: various concentrations, FIG. 3B
Protocol: as §1

[3] = tested on: breast tumor cell lines; experiment: Cytotoxicity (LDH release) across breast tumor cell lines; assay type: cell-based, human; settings: for effect of p53 status on cytotoxic potency: mutant p53 (MCF-7/Adr^−, SKBr3, T47D) vs wild-type p53 MCF-7, FIG. 4B; for relative cytotoxic potency: FIG. 3A, 3B, 4B
Protocol: as §1

[4] = tested on: MCF-7 cells; experiment: Detection of apoptosis by the TUNEL method; assay type: cell-based, human; settings: 100 μM, 48 hours; for TUNEL assay result: FIG. 2
Protocol: as §1
(§2) DNA fragmentation occurring during apoptosis can be detected by incorporating fluorescein-12-dUTP at the 3′-OH DNA ends using the enzyme, terminal deoxynucleotidyl transferase (TdT). TUNEL (TdT-mediated dUTP Nick-End Labeling) was performed using the Apoptosis Detection System, Fluorescein Kit (Promega, Madison, Wis.) according to the manufacturer's specification. After treatment with sigma ligands at the concentrations and times specified, cells were fixed with 4% formaldehyde, permeabilized with Triton X-100, and incubated with fluorescein-12-dUTP and terminal deoxynucleotidyl transferase and then with propidium iodide. Propidium iodide stains the DNA in both apoptotic and non-apoptotic cells with orange-red color. Fluorescein produces yellow-green fluorescence, indicating fragmented DNA within the nucleus of apoptotic cells. Filters used: excitation 450-490 nm, barrier 520 nm.

[5] = tested on: T47D cells; assay type: cell-based, human
Protocol: as §1, §2

[6] = tested on: MCF-7 cells; experiment: Detection of apoptosis by Annexin V binding; assay type: cell-based, human; settings: drug 100 μM; Z-VAD-FMK or Y-VAD-CHO 50 μM; 48 hours; FIG. 5
Protocol: as §1
The early stages of apoptosis are characterized by translocation of phosphatidyl serine (PS) from the inner surface of the plasma membrane to the outer surface of the membrane. Externalized PS can then be detected using Annexin V, a protein with high affinity for PS. This was carried out using the ApoAlert Annexin V Apoptosis Kit (Clontech, Palo Alto, Calif.) according to the manufacturer's specifications. After incubation with sigma ligands at the concentrations and times specified, live cells (without fixing) were incubated with annexin V-FITC and propidium iodide, and were investigated using fluorescence microscopy. […] Filters used: excitation 450 nm, barrier 535 nm.

[7] = tested on: sigma-2 receptor; settings: cited from earlier work; for sigma receptor subtype selectivity: sigma-2 vs sigma-1
[8] = tested on: tumor cell lines or primary cultures of rat neuronal cells; settings: continued exposure; cited from earlier work
[9] = tested on: breast tumor cell lines possessing p53 mutations; settings: Crawford et al., 1999; cited from earlier work
[10] = tested on: SK-N-SH neuroblastoma cells; settings: cited from earlier work
[11] = tested on: SKBr3 cell lines; assay type: cell-based, human
Protocol: as §1, §2

[12] = tested on: MCF-7 cells
Protocol: (§3) Human breast tumor cell lines (MCF-7, T47D, SKBr3, and MCF-7/Adr^−) were cultured in DMEM containing 3.7 g/liter Na2HCO3, fetal bovine serum (10%), and insulin (10 mg/liter). For cytotoxicity assays, cells were transferred to DMEM+Ham's nutrient mixture F-12 (without phenol red), with 1.2 g/liter Na2HCO3. Cells were seeded at 100,000 cells/well. Human SK-N-SH neuroblastoma and DU-145 prostate carcinoma cells were cultured in DMEM, supplemented with fetal bovine serum (10%).
(§4) Cell death was assessed by release of lactate dehydrogenase (LDH) into the culture medium using the CytoTox 96 kit from Promega (Madison, Wis.). The method used was as specified by manufacturer with minor modifications. Cells were plated and cultured in 24-well plates for 1 to 2 days prior to the experiment. Cells were treated in the plates under the specified drug conditions. Following treatment, the medium was transferred to centrifuge tubes and centrifuged to remove cell debris. Supernatant (50 μl) was transferred to a 96-well plate, to which was added substrate mix in assay buffer, followed by stop solution after a 30 min incubation. Formation of formazan was monitored at 490 nm in a plate reader. Values are expressed relative to total lysis controls (Triton X-100 was used to determine value for 100% cell kill) and no drug-controls. Doxorubicin and caspase inhibitors (Z-VAD-FMK, Y-VAD-CHO, DEVD-CHO) were obtained from Calbiochem (San Diego, Calif.) and actinomycin-D from Sigma (St. Louis, Mo.).

[13] = tested on: MCF-7/Adr^− cells; experiment: Cytotoxicity assay, LDH release into culture medium
Protocol: as §3, §4

[14] = up to 100 mg orally every four hours, 30 mg IV and 60 mg IM; cited from earlier work

For `CN1CC[C@]2(c3cccc(O)c3)CC(=O)/C(=C/c3ccccc3)[C@H]1C2` [CB-64D, (+)-1R,5R-E-8-benzylidene-5-(3-hydroxyphenyl)-2-methylmorphan-7-one], the “cytotoxicity (LDH release, percentage of total cell kill)” value [1] was “cytotoxic”, the “cytotoxicity (LDH release, percentage of total cell kill)” value [2] was “cytotoxic” and the “potency relative to CB-184 (fold less potent)” value ([3]; intact cells) was “about 10 fold”. For the same molecule, the “effect of p53 status on cytotoxic potency” value [3] was “generally not affected by p53 status; also recorded: comparable”, the “extent of apoptotic changes / apoptotic nuclei (TUNEL)” value [4] was “extensive apoptotic changes” and the TUNEL assay result [4] was “positive results”. The “cells visualized displaying apoptotic nuclei” value ([4]; in some experiments) was “up to 100%”, the TUNEL assay result ([5]; 100 μM, 48 hours, FIG. 2) was “positive results” and the “effect of caspase inhibitors on drug-induced apoptosis (Annexin V binding)” value [6] was “unaffected by co-treatment with caspase inhibitors”. For the same molecule, the “sigma receptor subtype selectivity” value [7] was “sigma-2 subtype-selective”, the “cell morphological changes and cell death” value [8] was “activity” and the induction of apoptosis [9] was “induce apoptosis”.

For `CN(C)CCN(C)CCc1ccc(Cl)c(Cl)c1` [BD1047], the “antagonist activity in the calcium assay” value ([10]; pH 7.2) is given as “ineffective” and the “antagonist activity in the calcium assay” value ([10]; pH 8.2) is given as “effectively attenuated agonist activity”.

For 12-methoxyibogamine [ibogaine], the “cell morphological changes and cell death” value [8] is given as “activity”.

For `O=P1(N(CCCl)CCCl)NCCCO1` (stereo not shown) [cyclophosphamide], the induction of apoptosis [11] was “apoptosis was induced” and the induction of apoptosis [5] was “apoptosis was induced”.

In the case of `CN1CCN(CCc2ccc(Cl)c(Cl)c2)CC1` [BD1063], the “antagonist activity in the calcium assay” value ([10]; pH 7.2) is given as “ineffective” and the “antagonist activity in the calcium assay” value ([10]; pH 8.2) is given as “effectively attenuated agonist activity”.

For `CC(C)=CCN1CCC2(C)c3cc(O)ccc3CC1C2C` (single isomer, unassigned; (-)) [(−)-Pentazocine], the sigma-2 affinity [7] is given as “has sigma-2 affinity”.

For `CN1CC[C@]2(c3cccc(O)c3)CC(=O)/C(=C/c3ccc(Cl)c(Cl)c3)[C@H]1C2` [CB-184, (+)-1R,5R-E-8-(3,4-dichlorobenzylidene)-5-(3-hydroxyphenyl)-2-methylmorphan-7-one], the “cytotoxicity of combination with doxorubicin” value ([12]; CB184 1 μM + doxorubicin 10 μM, 24 and 48 hours, FIG. 7A, 7B) was “Clear synergistic effects”, the “effect of DEVD-CHO on cytotoxicity (LDH release)” value ([12]; DEVD-CHO 50 μM, caspase 3 inhibitor, FIG. 6A, 6B) was “no difference” and the “effect of caspase inhibitors on drug-induced cytotoxicity (LDH release)” value ([12]; DEVD-CHO or Z-VAD-FMK 50 μM, FIG. 6A-6C) was “not that induced by CB-184”. For the same molecule, the “cytotoxicity of combination with actinomycin D” value ([13]; CB184 1 μM + actinomycin D 1 μg/ml at 24 hours or 0.1 μg/ml at 48 hours, FIG. 7C, 7D) was “potentiated”, the “cytotoxicity of combination with doxorubicin” value ([13]; CB184 1 μM + doxorubicin 10 μM) was “less pronounced” and the “cytotoxicity (LDH release, percentage of total cell kill)” value [1] was “cytotoxic”. For the same molecule, the “cytotoxicity (LDH release, percentage of total cell kill)” value [2] was “cytotoxic”, the “concentration below which toxicity is generally not seen in the LDH assay” value ([3]; 24 hrs) was “below 1 μM” and the relative cytotoxic potency ([3]; intact cells) was “more potent than CB-64D; also recorded: most potent sigma-2 selective agent in intact cells”. The relative cytotoxic potency ([3]; intact cells, listed as CB184) was “greatest potency in all cell lines tested”, the “LDH release compared to controls” value ([3]; below 1 μM, 48 hrs) was “mildly increased LDH release” and the “effect of p53 status on cytotoxic potency” value [3] was “generally not affected by p53 status; also recorded: comparable”. For the same molecule, the “sigma receptor subtype selectivity” value [7] was “sigma-2 subtype-selective”.

For `OC(CCCN1CCC(O)(c2ccc(Cl)cc2)CC1)c1ccc(F)cc1` (stereo not shown) [reduced haloperidol], the “extent of apoptotic changes / apoptotic nuclei (TUNEL)” value [4] was “less extensively than the more potent CB64D”, the TUNEL assay result [4] was “positive results” and the TUNEL assay result [5] was “positive results”. For the same molecule, the “sigma receptor subtype selectivity” value [7] was “subtype non-selective” and the “cell morphological changes and cell death” value [8] was “cell death”.

For `CC(C)=CCN1CCC2(C)c3cc(O)ccc3CC1C2C` (racemic) [pentazocine], the “potentiation of doxorubicin-induced cytotoxicity” value ([12]; combined with doxorubicin in MCF-7 cells) is given as “Little or no potentiation”, the “potentiation of doxorubicin-induced cytotoxicity” value ([13]; haloperidol 25 μM or pentazocine 35 μM with various concentrations of doxorubicin, FIG. 8) is given as “potentiated the cytotoxicity of doxorubicin; also recorded: potentiated the higher doses of doxorubicin” and the peak plasma concentrations [14] is given as “about 160 ng/ml”.

In the case of `Cc1c2oc3c(C)ccc(C(=O)N[C@@H]4C(=O)N[C@H](C(C)C)C(=O)N5CCC[C@H]5C(=O)N(C)CC(=O)N(C)[C@@H](C(C)C)C(=O)O[C@@H]4C)c3nc-2c(C(=O)N[C@@H]2C(=O)N[C@H](C(C)C)C(=O)N3CCC[C@H]3C(=O)N(C)CC(=O)N(C)[C@@H](C(C)C)C(=O)O[C@@H]2C)c(N)c1=O` [actinomycin D] (I: T[dV]P[Sar][NMeV] / II: T[dV]P[Sar][NMeV]; ester I:1-I:C, II:1-II:C; linker I:N-II:N via Actinocin(9to1)), the induction of apoptosis [11] is given as “apoptosis was induced”, the induction of apoptosis [5] is given as “apoptosis was induced” and the induction of apoptosis [9] is given as “greatly attenuated”.

For `COc1cccc2c1C(=O)c1c(O)c3c(c(O)c1C2=O)C[C@@](O)(C(=O)CO)C[C@@H]3O[C@H]1C[C@H](N)[C@H](O)[C@H](C)O1` [doxorubicin], the LDH release ([12]; various concentrations, FIG. 6C) was “dose-dependent increase in LDH-release”, the TUNEL assay result [4] was “positive results” and the induction of apoptosis [11] was “apoptosis was induced”. The induction of apoptosis [5] was “apoptosis was induced”, the TUNEL assay result ([5]; 100 μM, 48 hours, FIG. 2) was “positive results” and the “effect of caspase inhibitors on drug-induced apoptosis (Annexin V binding)” value [6] was “blocked apoptosis induced by doxorubicin”. The induction of apoptosis [9] was “greatly attenuated”.

For `O=C(CCCN1CCC(O)(c2ccc(Cl)cc2)CC1)c1ccc(F)cc1` [haloperidol], the “extent of apoptotic changes / apoptotic nuclei (TUNEL)” value [4] was “less extensively than the more potent CB64D”, the TUNEL assay result [4] was “positive results” and the TUNEL assay result ([5]; 100 μM, 48 hours, FIG. 2) was “positive results”. For the same molecule, the “sigma receptor subtype selectivity” value [7] was “subtype non-selective” and the “cell morphological changes and cell death” value [8] was “cell death”.

For `CC(C)=CCN1CCC2(C)c3cc(O)ccc3CC1C2C` (single isomer, unassigned; (+)) [(+)-pentazocine], the sigma-2 affinity [7] is given as “binds very weakly” and the “cell morphological changes and cell death” value [8] is given as “lack of activity”.

— patent US20030171397A1 (priority 2003, published 2003)
